For the assay, the target named is T1, human orexin-2 (hOX2) receptors (Homo sapiens, UniProt O43614).
T1 construct: expressed in transfected cells
T1 sequence (O43614 1-444): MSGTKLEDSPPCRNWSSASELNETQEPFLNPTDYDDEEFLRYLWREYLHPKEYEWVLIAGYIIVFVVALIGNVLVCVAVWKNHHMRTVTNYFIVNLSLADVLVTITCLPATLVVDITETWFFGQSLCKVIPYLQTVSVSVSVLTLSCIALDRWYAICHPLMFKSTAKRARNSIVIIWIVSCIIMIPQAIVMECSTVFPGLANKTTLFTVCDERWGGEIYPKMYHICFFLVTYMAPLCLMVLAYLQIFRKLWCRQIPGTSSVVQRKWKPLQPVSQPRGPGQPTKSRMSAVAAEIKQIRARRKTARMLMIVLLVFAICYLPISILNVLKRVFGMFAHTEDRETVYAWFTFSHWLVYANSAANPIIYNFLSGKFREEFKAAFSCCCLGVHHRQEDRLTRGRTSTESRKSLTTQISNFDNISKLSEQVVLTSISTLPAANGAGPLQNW
The assay can be described thus: Intracellular Ca2+ mobilization assay (FLIPR), antagonism of orexin-A. The settings on record: CHO(dHFr−) cells stably expressing hOX2; orexin-A at EC80 as agonist; Kb=IC50/(1+[A]/EC50); read-out: Kb (μM) OX2R (human). It counts as cell-based. As to the method:
R^7 and R^8 in scheme 5 are hydrogen, and the other substituents are as described above The compounds were investigated in accordance with the test given hereinafter. Intracellular Ca^2+ Mobilization Assay
The Chinese Hamster Ovary (dHFr−) mutant cell line stably expressing human orexin-1 (hOX1) or human orexin-2 (hOX2) receptors were maintained in Dulbecco's Modified Eagle Medium (1×) with GlutaMax™ 1, 4500 mg/L D-Glucose and Sodium Pyruvate (Catalog No. 31966-021, Invitrogen, Carlsbad, Calif.), 5% dialyzed fetal calf serum (Catalog No. 26400-044), 100 μg/ml penicillin and 100 μg/ml streptomycin. The cells were seeded at 5×10^4 cells/well in the poly-D-lysine treated, 96-well, black/clear-bottomed plates (Catalog No. BD356640, BD Biosciences, Palo Alto, Calif.). 24 h later, the cells were loaded for 1 h at 37° C. with 4 μM Flou-4 acetoxymethyl ester (Catalog No. F-14202, Molecular Probes, Eugene, Oreg.) in FLIPR buffer (1×HBSS, 20 mM HEPES, 2.5 mM Probenecid). Hanks' Balanced Salt Solution (HBSS) (10×) (catalog No. 14065-049) and HEPES (1M) (catalog No. 15630-056) were purchased from Invitrogen, Carlsbad, Calif. Probenecid (250 mM) (catalog No. P8761) was from Sigma, Buchs, Switzerland. The cells were washed five times with FLIPR buffer to remove excess dye and intracellular calcium mobilization, [Ca^2+]i were measured using a Fluorometric Imaging Plate Reader (FLIPR-96, Molecular Devices, Menlo Park, Calif.) as described previously (Malherbe et al., Mol. Pharmacol., 64, 823-832, 2003). Orexin A (catalog No. 1455, Toris Cookson Ltd, Bristol, UK) was used as agonist. Orexin A ([…] stock solution in DMSO) was diluted in FLIPR buffer+0.1% BSA. The EC50 and EC80 values of orexin-A were measured daily from standard agonist concentration-response curves in CHO(dHFr−)-OX1R and —OX2R cell lines. All compounds were dissolved in 100% DMSO. Inhibition curves were determined by addition of 11 concentrations (0.0001-10 μM) of inhibitory compounds and using EC80 value of orexin-A as agonist (a concentration which gave 80% of max agonist response, determined daily). The antagonists were applied 25 min (incubation at 37° C.) before the application of the agonist. Responses were measured as peak increase in fluorescence minus basal, normalized to the maximal stimulatory effect induced by EC80 value of orexin-A or orexin-B. Inhibition curves were fitted according to the Hill equation: y=100/(1+(x/IC50)^nH), where nH=slope factor using Excel-fit 4 software (Microsoft). Kb values were calculated according to the following equation Kb=IC50/(1+[A]/EC50) where A is the concentration of agonist added which is very close to agonist EC80 value, and IC50 and EC50 values were derived from the antagonist inhibition and orexin-A or B agonist curves, respectively.
A general note: Calcium flux is commonly read through the fluorescence of an indicator in the cells.
Turning to `CNC(=O)[C@H](N[C@@H](CCc1cnc(Cl)cn1)c1ccc(OC(F)F)c(OC(F)F)c1)c1ccccc1` (racemic) [Example 297, (S,R)-2-[(R,S)-1-(3,4-Bis-difluoromethoxy-phenyl)-3-(5-chloro-pyrazin-2-yl)-propylamino]-N-methyl-2-phenyl-acetamide], the Kb came to 0.0153 µM.

On to `CNC(=O)[C@H](N[C@H](CCc1ccc(C(F)(F)F)cc1)c1cc(C)on1)c1ccccc1` (racemic) [Example 301, (S,R)—N-Methyl-2-[(S,R)-1-(5-methyl-isoxazol-3-yl)-3-(4-trifluoromethyl-phenyl)-propylamino]-2-phenyl-acetamide], for which the Kb amounted to 0.0116 µM.

Consider `CNC(=O)[C@H](N[C@@H](CCc1ccc(C(F)(F)F)cc1)c1cc(C)on1)c1ccccc1` (racemic) [Example 302, (S,R)—N-Methyl-2-[(R,S)-1-(5-methyl-isoxazol-3-yl)-3-(4-trifluoromethyl-phenyl)-propylamino]-2-phenyl-acetamide], for which the antagonist equilibrium constant (Kb) came out at 0.0161 µM.

Regarding `CNC(=O)[C@H](N[C@@H](CCc1ccc(Cl)cn1)c1ccc(OC(F)F)c(OC(F)F)c1)c1ccccc1` (racemic) [Example 306, (S,R)-2-[(R,S)-1-(3,4-Bis-difluoromethoxy-phenyl)-3-(5-chloro-pyridin-2-yl)-propylamino]-N-methyl-2-phenyl-acetamide], the Kb was 0.0063 µM.

Consider `CNC(=O)[C@H](N[C@@H](CCc1ccc(Cl)cc1)c1ccc(OC)c(OC)c1)c1ccc(Cl)cc1` (racemic) [Example 319, (R,S)-2-(4-Chloro-phenyl)-2-[(S,R)-3-(4-chloro-phenyl)-1-(3,4-dimethoxy-phenyl)-propylamino]-N-methyl-acetamide], for which the Kb was determined as 0.0086 µM.

Take `CNC(=O)[C@H](N[C@H](CCc1cccc(C(F)(F)F)c1)c1ccc(OC)c(OC)c1)c1ccccc1` (racemic) [Example 320, (R,S)-2-[(R,S)-1-(3,4-Dimethoxy-phenyl)-3-(3-trifluoromethyl-phenyl)-propylamino]-N-methyl-2-phenyl-acetamide]: the Kb stood at 0.0021 µM.

With `CNC(=O)[C@H](N[C@@H](CCc1cccc(C(F)(F)F)c1)c1ccc(OC)c(OC)c1)c1ccccc1` (racemic) [Example 321, (R,S)-2-[(S,R)-1-(3,4-Dimethoxy-phenyl)-3-(3-trifluoromethyl-phenyl)-propylamino]-N-methyl-2-phenyl-acetamide], the Kb was 0.0028 µM.

As to `CNC(=O)[C@H](N[C@@H](CCc1ccc(C(F)(F)F)nc1)c1ccc(F)c(C)c1)c1ccc(C)cc1` (racemic) [Example 334, (R,S)-2-[(S,R)-1-(4-Fluoro-3-methyl-phenyl)-3-(6-trifluoromethyl-pyridin-3-yl)-propylamino]-N-methyl-2-p-tolyl-acetamide], the Kb turned out to be 0.01 µM.

On to `CCNC(=O)[C@H](N[C@@H](CCc1ccc(C(F)(F)F)nc1)c1ccc(F)c(C)c1)c1ccccc1` (racemic) [Example 340, (R,S)—N-Ethyl-2-[(S,R)-1-(4-fluoro-3-methyl-phenyl)-3-(6-trifluoromethyl-pyridin-3-yl)-propylamino]-2-phenyl-acetamide], for which the antagonist dissociation constant (Kb) is 0.0178 µM.

On to `CNC(=O)[C@H](N[C@@H](CCc1ccc(C(F)(F)F)nc1)c1ccc(F)c(C)c1)c1ccc(OC)cc1` (racemic) [Example 350, (R,S)-2-[(S,R)-1-(4-fluoro-3-methyl-phenyl)-3-(6-trifluoromethyl-pyridin-3-yl)-propylamino]-2-(4-methoxy-phenyl)-N-methyl-acetamide], for which the Kb was 0.0164 µM.

As for `Cc1cc([C@H](CCc2ccc(C(F)(F)F)nc2)N[C@@H](C(=O)NCCO)c2ccccc2)ccc1F` (racemic) [Example 356, (R,S)-2-[(S,R)-1-(4-Fluoro-3-methyl-phenyl)-3-(6-trifluoromethyl-pyridin-3-yl)-propylamino]-N-(2-hydroxy-ethyl)-2-phenyl-acetamide], the Kb is 0.0044 µM.

In the case of `CNC(=O)[C@H](N[C@@H](CCc1ccc(C)cc1)c1ccc(F)c(C)c1)c1ccccc1` (racemic) [Example 365, (R,S)-2-[(S,R)-1-(4-Fluoro-3-methyl-phenyl)-3-p-tolyl-propylamino]-N-methyl-2-phenyl-acetamide], the Kb came out at 0.0124 µM.

Take `CNC(=O)[C@H](NC(CCc1ccc(C(F)(F)F)cc1)c1ccc(OC)c(OC)c1)c1ccccc1` (single isomer, unassigned) [Example 6, (R)-2-[(S or R)-1-(3,4-Dimethoxy-phenyl)-3-(4-trifluoromethyl-phenyl)-propylamino]-N-methyl-2-phenyl-acetamide]: the antagonist dissociation constant (Kb) stood at 0.0017 µM.

For the molecule `CNC(=O)[C@H](NC(CCc1ccc(C(F)(F)F)cc1)c1ccc(OC)c(OC)c1)c1ccccc1` (single isomer, unassigned) [Example 7, (R)-2-[(S or R)-1-(3,4-Dimethoxy-phenyl)-3-(4-trifluoromethyl-phenyl)-propylamino]-N-methyl-2-phenyl-acetamide], the Kb is 0.0142 µM.

As for `CCNC(=O)[C@H](NC(CCc1ccc(C(F)(F)F)cc1)c1ccc(OC)c(OC)c1)c1ccccc1` (single isomer, unassigned) [Example 13, (R)-2-[(R or S)-1-(3,4-Dimethoxy-phenyl)-3-(4-trifluoromethyl-phenyl)-propylamino]-N-ethyl-2-phenyl-acetamide], the Kb was 0.0026 µM.

For `COc1ccc(C(CCc2ccc(C(F)(F)F)cc2)N[C@@H](C(=O)NCC2CC2)c2ccccc2)cc1OC` (single isomer, unassigned) [Example 16, (R)-N-Cyclopropylmethyl-2-[(R or S)-1-(3,4-dimethoxy-phenyl)-3-(4-trifluoromethyl-phenyl)-propylamino]-2-phenyl-acetamide], the Kb stood at 0.0142 µM.

`CNC(=O)[C@@](C)(N[C@@H](CCc1ccc(C(F)(F)F)cc1)c1ccc(OC)c(OC)c1)c1ccccc1` (single isomer, unassigned) [Example 29]: the antagonist dissociation constant (Kb) amounted to 0.0184 µM.

With `CNC(=O)[C@H](N[C@@H](CCc1ccc(Cl)cc1)c1ccc(OC)c(OC)c1)c1ccccc1` (single isomer, unassigned) [Example 140], the Kb turned out to be 0.0014 µM.

Regarding `CNC(=O)[C@H](N[C@@H](CCc1ccc(F)cc1)c1ccc(OC)c(OC)c1)c1ccccc1` (single isomer, unassigned) [Example 144], the Kb turned out to be 0.0097 µM.

With `CNC(=O)[C@H](N[C@@H](CCc1ccccc1)c1ccc(OC)c(OC)c1)c1ccccc1` (single isomer, unassigned) [Example 314], the Kb amounted to 0.0067 µM.

On to `CNC(=O)C(NC(CCc1ccc(C(F)(F)F)cc1)c1sc(C)nc1C)c1ccc(F)cc1` (centres unmarked) [Example 80, 2-[1-(2,4-Dimethyl-thiazol-5-yl)-3-(4-trifluoromethyl-phenyl)-propylamino]-2-(4-fluoro-phenyl)-N-methyl-acetamide], for which the antagonist dissociation constant (Kb) worked out at 0.0192 µM.

Take `CNC(=O)C(NC(CCc1ccc(C(F)(F)F)cc1)c1cc(C(C)C)no1)c1ccccc1` (centres unmarked) [Example 92, 2-[1-(3-Isopropyl-isoxazol-5-yl)-3-(4-trifluoromethyl-phenyl)-propylamino]-N-methyl-2-phenyl-acetamide]: the antagonist dissociation constant (Kb) amounted to 0.007 µM.

As to `CNC(=O)C(NC(CCc1ccc(C(F)(F)F)cc1)c1sc(C)nc1C)c1ccccc1` (centres unmarked) [Example 93, 2-[1-(2,4-Dimethyl-thiazol-5-yl)-3-(4-trifluoromethyl-phenyl)-propylamino]-N-methyl-2-phenyl-acetamide], the antagonist dissociation constant (Kb) is 0.017 µM.

As usually defined, the Kb is the affinity of an antagonist, worked out from how it opposes an agonist.

For the origin of these results see US7829563B2, “Aminoamides as orexin antagonists” (Hoffmann-La Roche Inc., priority 2007, dated 2010).
